Laboratory results: the NIST ThermoML archive (doi:10.1007/s10765-019-2484-6)

Experiment: xn = mol fraction of the nth substance listed
Conditions: Gas, Loschmidt cell combined with holographic interferometry

CCC [propane] + O=C=O
Conditions | binary diffusion coefficient [m2/s]
293.24 K, 50 kPa, x1 = 0.5 | 1.89e-05
293.25 K, 100 kPa, x1 = 0.1665 | 8.54e-06
293.25 K, 200 kPa, x1 = 0.1665 | 4.14e-06
293.27 K, 100 kPa, x1 = 0.333 | 8.31e-06
293.27 K, 100 kPa, x1 = 0.833 | 8.29e-06
293.27 K, 500 kPa, x1 = 0.1665 | 1.59e-06
293.28 K, 200 kPa, x1 = 0.333 | 4.12e-06
293.28 K, 200 kPa, x1 = 0.833 | 4.06e-06
293.3 K, 500 kPa, x1 = 0.333 | 1.71e-06
293.31 K, 200 kPa, x1 = 0.4995 | 4.12e-06
293.32 K, 100 kPa, x1 = 0.4995 | 8.23e-06
293.32 K, 500 kPa, x1 = 0.833 | 1.51e-06
293.33 K, 200 kPa, x1 = 0.6665 | 4.06e-06
293.33 K, 500 kPa, x1 = 0.4995 | 1.49e-06
293.36 K, 100 kPa, x1 = 0.6665 | 8.25e-06
293.37 K, 200 kPa, x1 = 0.5 | 4.06e-06
293.39 K, 500 kPa, x1 = 0.5 | 1.54e-06
293.41 K, 500 kPa, x1 = 0.6665 | 1.52e-06
293.47 K, 100 kPa, x1 = 0.5 | 8.23e-06
313.21 K, 200 kPa, x1 = 0.333 | 4.88e-06
313.21 K, 500 kPa, x1 = 0.5 | 1.77e-06
313.22 K, 200 kPa, x1 = 0.5 | 4.77e-06
313.23 K, 100 kPa, x1 = 0.6665 | 9.67e-06
313.23 K, 200 kPa, x1 = 0.833 | 4.77e-06
313.25 K, 100 kPa, x1 = 0.833 | 9.53e-06
313.26 K, 100 kPa, x1 = 0.333 | 9.71e-06
313.26 K, 200 kPa, x1 = 0.6665 | 4.79e-06
313.27 K, 500 kPa, x1 = 0.333 | 1.94e-06
313.27 K, 500 kPa, x1 = 0.6665 | 1.85e-06
313.27 K, 500 kPa, x1 = 0.833 | 1.86e-06
313.28 K, 100 kPa, x1 = 0.1665 | 9.79e-06
313.28 K, 200 kPa, x1 = 0.1665 | 4.8e-06
313.29 K, 200 kPa, x1 = 0.4995 | 4.8e-06
313.31 K, 500 kPa, x1 = 0.1665 | 1.95e-06
313.32 K, 100 kPa, x1 = 0.4995 | 9.71e-06

C [methane] + CCC
Conditions | binary diffusion coefficient [m2/s]
293.09 K, 500 kPa, x2 = 0.659 | 2.12e-06
293.12 K, 500 kPa, x2 = 0.3331 | 2.19e-06
293.12 K, 500 kPa, x2 = 0.492 | 2.07e-06
293.13 K, 500 kPa, x2 = 0.833 | 1.97e-06
293.16 K, 500 kPa, x2 = 0.5 | 2.19e-06
293.18 K, 500 kPa, x2 = 0.159 | 2.36e-06
293.19 K, 50 kPa, x2 = 0.5 | 2.36e-06
293.21 K, 200 kPa, x2 = 0.5 | 5.78e-06
293.29 K, 100 kPa, x2 = 0.5 | 1.18e-05
293.31 K, 100 kPa, x2 = 0.4973 | 1.21e-05
293.31 K, 100 kPa, x2 = 0.6665 | 1.18e-05
293.31 K, 200 kPa, x2 = 0.6665 | 5.81e-06
293.32 K, 100 kPa, x2 = 0.159 | 1.24e-05
293.32 K, 100 kPa, x2 = 0.3335 | 1.18e-05
293.33 K, 100 kPa, x2 = 0.833 | 1.18e-05
293.33 K, 200 kPa, x2 = 0.159 | 6.16e-06
293.33 K, 200 kPa, x2 = 0.3335 | 5.7e-06
293.33 K, 200 kPa, x2 = 0.833 | 5.77e-06
293.34 K, 200 kPa, x2 = 0.498 | 5.81e-06
313.28 K, 500 kPa, x2 = 0.4995 | 2.71e-06
313.52 K, 500 kPa, x2 = 0.832 | 2.73e-06
313.54 K, 500 kPa, x2 = 0.1665 | 2.8e-06
313.55 K, 100 kPa, x2 = 0.8295 | 1.37e-05
313.55 K, 500 kPa, x2 = 0.332 | 2.79e-06
313.55 K, 500 kPa, x2 = 0.5 | 2.72e-06
313.56 K, 100 kPa, x2 = 0.3295 | 1.4e-05
313.56 K, 100 kPa, x2 = 0.4995 | 1.31e-05
313.57 K, 200 kPa, x2 = 0.4995 | 6.73e-06
313.57 K, 200 kPa, x2 = 0.6665 | 6.92e-06
313.58 K, 100 kPa, x2 = 0.159 | 1.52e-05
313.58 K, 200 kPa, x2 = 0.5 | 6.91e-06
313.59 K, 100 kPa, x2 = 0.5 | 1.38e-05
313.59 K, 200 kPa, x2 = 0.3295 | 6.98e-06
313.59 K, 500 kPa, x2 = 0.6665 | 2.76e-06
313.6 K, 100 kPa, x2 = 0.6665 | 1.4e-05
313.6 K, 200 kPa, x2 = 0.159 | 7.39e-06
313.61 K, 200 kPa, x2 = 0.8295 | 6.76e-06
